Measured values taken from patent US11945822B2, “Pyrazolo-triazine and/or pyrazolo-pxrimidine derivatives as selective inhibitor of cyclin dependent kinase” (QURIENT CO., LTD., priority 2018, dated 2024).
Like-named read-outs stand apart in the source and are kept apart here.

Tests used:
H460 = assay: Cellular H460 viability assay (CellTiter-Glo, 72 hours); assay type: cell-based; conditions: Homo sapiens, NCI-H460
How it was run: (§1)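 Luminescent ATP read-out (CellTiter-Glo) after 72 h compound exposure at 37 °C/5% CO2; duplicate wells; vehicle control DMSO <0.1% final; seeding density set per cell line.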

CDK2/Cyclin A = biological target: T1, CDK2/Cyclin A (Homo sapiens, UniProt P24941); assay: Enzymatic assay for CDK2 (FRET based LANCE Ultra kinase assay); assay type: biochemical
T1 construct: purchased Invitrogen PV6290
How it was run: (§2)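 Each CDK complex ([…]) phosphorylated 68 nM ULight-MBP peptide with ATP at Km for 60 min at 23° C., against 8 compound doses (4-fold dilutions). EDTA/Eu-anti-phospho-MBP detection, 60 min, then TR-FRET emission at 615 and 665 nm.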

CDK1/Cyclin B = biological target: T2, CDK1/Cyclin B (Homo sapiens, UniProt P06493); assay: Enzymatic assay for CDK1 (FRET based LANCE Ultra kinase assay); assay type: biochemical
T2 construct: purchased Invitrogen PR4768C
How it was run: as §2

OVCAR-3 = assay: Cellular OVCAR-3 viability assay (CellTiter-Glo, 72 hours); assay type: cell-based; conditions: Homo sapiens
From the text: Human T-cell acute lymphoblastic leukemia cell line, MOLT-4 (ATCC, Cat #CRL-1582), Human multiple myeloma cell line, RPMI-8226 (Invitrogen, Cat #22400-089) and MM.1S (ATCC, Cat #CRL-2974), NSCLC (Non-small cell lung cancer) cell line H460 (ATCC, Cat #HTB-177), Human colon colorectal carcinoma cell line HCT116 (ATCC, Cat #CCL-247), Human acute monocytic leukemia cell line MV4-11 (ATCC, Cat #CRL-9591), OVCAR-3 (ATCC, Cat #HTB-161) and A2780 (ECACC, Cat #93112519) were obtained from ATCC. Cells were grown in RPMI-1640 media (Invitrogen, Cat #22400-089) supplemented with 10% FBS (Invitrogen, Cat #10099141) and 1% penicillin/streptomycin (Invitrogen, Cat #15070063) and cultured at 37° C., 5% CO2 in a humidified chamber. All cell lines were routinely tested for mycoplasma.
The effect of the CDK7 inhibitor to inhibit the growth of target cancer cells was evaluated through the 72 hours time period of viability assay. Briefly, the candidate cell line ware plated in 96 well plate at the following density of cells respectively. 1×10^4 cells/well for MOLT-4, RPMI-8226, MV4-11 and MM.1S, 5×10^3 for H460, HCT116 and OVCAR-3 and IX 10^3 for A2780. After 24 hours, the cells were treated with various concentrations of the compound (ranging from 0.0015 uM to 10 uM). DMSO solvent without compound served as a control and final DMSO concentration less than 0.1%. After 72 hours of incubation at 37° C., 5% CO2 incubator, cells were analyzed for the viability using the CellTiter-Glo Luminescent Cell Viability Assay (Promega, Cat #G7570). All viability assays were performed in duplicate and Luminescence was read using an Envision (Perkin Elmer, USA). Data was analyzed using XLfit software.

A2780 = assay: Cellular A2780 viability assay (CellTiter-Glo, 72 hours); assay type: cell-based; conditions: Homo sapiens
How it was run: (§3)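 Compound exposure lasted 72 h at 37° C, 5% CO2, over 0.0015–10 uM, DMSO kept under 0.1%, with dosing 24 h after seeding. Seeding: A2780 1×10^3, OVCAR-3 5×10^3, MM.1S 1×10^4 cells/well in 10% FBS RPMI-1640. Duplicate CellTiter-Glo luminescence readout.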

CDK5/p25 = biological target: T3, CDK5/p25 (Homo sapiens, UniProt Q00535); assay: Enzymatic assay for CDK5 (FRET based LANCE Ultra kinase assay); assay type: biochemical
T3 construct: purchased Invitrogen PR8543B
How it was run: as §2

CDK7/Cyclin H/MNAT1 = biological target: T4, CDK7/Cyclin H/MNAT1 (Homo sapiens, UniProt P50613); assay: Enzymatic assay for CDK7 (FRET based LANCE Ultra kinase assay); assay type: biochemical
T4 construct: purchased Invitrogen PR6749B
How it was run: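 Inhibition was measured at Km ATP by time-resolved FRET between a Eu anti-phospho antibody and a phosphorylated ULight peptide. The enzyme was the purified CDK7/cyclin complex, and data were curve-fitted.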

MV4-11 = assay: Cellular MV4-11 viability assay (CellTiter-Glo, 72 hours); assay type: cell-based; conditions: Homo sapiens
How it was run: as §1

MOLT-4 = assay: Cellular MOLT-4 viability assay (CellTiter-Glo, 72 hours); assay type: cell-based; conditions: Homo sapiens, MOLT4 viability assay
How it was run: as §1

RPMI-8226 = assay: Cellular RPMI-8226 viability assay (CellTiter-Glo, 72 hours); assay type: cell-based; conditions: Homo sapiens
How it was run: as §1

HCT116 = assay: Cellular HCT116 viability assay (CellTiter-Glo, 72 hours); assay type: cell-based; conditions: Homo sapiens, HCT-116
How it was run: as §1

MM.1S = assay: Cellular MM.1S viability assay (CellTiter-Glo, 72 hours); assay type: cell-based; conditions: Homo sapiens, MM1.S
How it was run: as §3

[1] = read-out: CDK2 enzymatic activity (IC50 activity range)
[2] = read-out: CDK1 enzymatic activity (IC50 activity range)
[3] = read-out: CDK5 enzymatic activity (IC50 activity range)
[4] = read-out: CDK7 enzymatic activity (IC50 activity range)
[5] = read-out: CDK2 enzymatic activity (IC50 range)
[6] = read-out: CDK1 enzymatic activity (IC50 range)
[7] = read-out: CDK5 enzymatic activity (IC50 range)
[8] = read-out: CDK7 enzymatic activity (IC50 range)

T2 sequence (P06493 whole entry): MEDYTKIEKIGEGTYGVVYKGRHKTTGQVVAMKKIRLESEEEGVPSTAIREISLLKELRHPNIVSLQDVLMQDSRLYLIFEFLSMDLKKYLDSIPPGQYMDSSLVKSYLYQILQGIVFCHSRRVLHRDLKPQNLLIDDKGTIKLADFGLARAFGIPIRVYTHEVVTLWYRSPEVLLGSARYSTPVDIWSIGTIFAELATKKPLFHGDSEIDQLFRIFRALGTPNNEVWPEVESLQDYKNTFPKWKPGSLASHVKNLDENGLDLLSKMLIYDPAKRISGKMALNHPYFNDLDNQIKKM
T2 sequence (P14635 whole entry partner): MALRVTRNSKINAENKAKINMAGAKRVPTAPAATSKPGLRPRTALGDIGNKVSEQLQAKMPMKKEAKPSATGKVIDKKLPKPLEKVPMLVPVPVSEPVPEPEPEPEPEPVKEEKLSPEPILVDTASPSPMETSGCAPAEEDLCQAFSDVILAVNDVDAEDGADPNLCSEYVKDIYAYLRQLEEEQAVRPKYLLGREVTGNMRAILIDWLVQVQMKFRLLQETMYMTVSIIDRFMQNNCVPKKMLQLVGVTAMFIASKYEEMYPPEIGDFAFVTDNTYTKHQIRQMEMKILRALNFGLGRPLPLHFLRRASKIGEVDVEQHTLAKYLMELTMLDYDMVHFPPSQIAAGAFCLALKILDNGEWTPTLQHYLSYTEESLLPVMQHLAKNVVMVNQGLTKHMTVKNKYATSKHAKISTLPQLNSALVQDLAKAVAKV
T3 sequence (Q00535 whole entry): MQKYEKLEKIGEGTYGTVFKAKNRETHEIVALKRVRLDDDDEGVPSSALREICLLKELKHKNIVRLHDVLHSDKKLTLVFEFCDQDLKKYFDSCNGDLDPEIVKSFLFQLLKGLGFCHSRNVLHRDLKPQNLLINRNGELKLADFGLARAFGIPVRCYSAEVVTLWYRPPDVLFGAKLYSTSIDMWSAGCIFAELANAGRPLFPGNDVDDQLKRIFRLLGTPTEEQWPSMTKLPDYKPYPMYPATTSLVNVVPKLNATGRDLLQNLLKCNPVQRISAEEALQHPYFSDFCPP
T3 sequence (Q15078 99-307 partner limits assumed): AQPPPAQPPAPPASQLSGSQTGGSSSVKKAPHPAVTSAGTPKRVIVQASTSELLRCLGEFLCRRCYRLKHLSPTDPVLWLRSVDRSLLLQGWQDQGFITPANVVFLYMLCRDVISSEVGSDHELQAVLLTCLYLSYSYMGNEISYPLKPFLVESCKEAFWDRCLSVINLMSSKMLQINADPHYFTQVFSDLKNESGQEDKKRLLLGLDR
T4 sequence (P50613 whole entry): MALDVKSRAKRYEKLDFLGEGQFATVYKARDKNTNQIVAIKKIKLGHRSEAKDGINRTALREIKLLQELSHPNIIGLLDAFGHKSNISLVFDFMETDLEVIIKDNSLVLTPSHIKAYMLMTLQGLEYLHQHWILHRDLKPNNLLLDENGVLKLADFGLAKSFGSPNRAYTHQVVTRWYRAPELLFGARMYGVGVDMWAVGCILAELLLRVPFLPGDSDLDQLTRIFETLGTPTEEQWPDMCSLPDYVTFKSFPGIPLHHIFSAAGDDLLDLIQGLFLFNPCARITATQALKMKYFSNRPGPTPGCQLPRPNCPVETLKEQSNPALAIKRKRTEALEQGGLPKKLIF
T4 sequence (P51946 whole entry partner): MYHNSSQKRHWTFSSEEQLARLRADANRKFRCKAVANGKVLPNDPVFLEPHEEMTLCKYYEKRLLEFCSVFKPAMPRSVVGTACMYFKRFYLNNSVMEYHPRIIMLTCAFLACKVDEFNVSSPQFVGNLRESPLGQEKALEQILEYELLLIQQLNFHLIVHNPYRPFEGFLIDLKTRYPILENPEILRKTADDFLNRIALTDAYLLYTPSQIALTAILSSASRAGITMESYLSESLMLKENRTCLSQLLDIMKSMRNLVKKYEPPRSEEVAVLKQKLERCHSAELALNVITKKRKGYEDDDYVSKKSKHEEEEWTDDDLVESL
T4 sequence (P51948 whole entry partner): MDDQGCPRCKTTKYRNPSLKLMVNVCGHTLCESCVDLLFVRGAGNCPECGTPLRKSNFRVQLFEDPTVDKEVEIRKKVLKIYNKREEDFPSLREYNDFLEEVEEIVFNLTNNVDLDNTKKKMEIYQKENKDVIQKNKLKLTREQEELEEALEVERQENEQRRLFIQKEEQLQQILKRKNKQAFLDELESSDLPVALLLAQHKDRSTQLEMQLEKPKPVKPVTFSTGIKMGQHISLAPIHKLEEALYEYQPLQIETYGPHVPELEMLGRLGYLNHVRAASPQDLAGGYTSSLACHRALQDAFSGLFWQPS

Structure (SMILES)	IC50 (H460) [µM]	IC50 (CDK2/Cyclin A; [1]) [µM]	IC50 (CDK1/Cyclin B; [2]) [µM]	IC50 (OVCAR-3) [µM]	IC50 (A2780) [µM]	IC50 (CDK5/p25; [3]) [µM]	CDK1/CDK7: Selectivity of CDK7 inhibition over CDK1 inhibition (CDK7/Cyclin H/MNAT1; CDK1/CDK7)	CDK2/CDK7: Selectivity of CDK7 inhibition over CDK2 inhibition (CDK7/Cyclin H/MNAT1; CDK2/CDK7)	CDK5/CDK7: Selectivity of CDK7 inhibition over CDK5 inhibition (CDK7/Cyclin H/MNAT1; CDK5/CDK7)	IC50 (CDK7/Cyclin H/MNAT1; [4]) [µM]	IC50 (MV4-11) [µM]	IC50 (RPMI-8226) [µM]	IC50 (CDK2/Cyclin A; [5]) [µM]	IC50 (CDK1/Cyclin B; [6]) [µM]	IC50 (HCT116) [µM]	IC50 (MM.1S) [µM]	IC50 (CDK5/p25; [7]) [µM]	CDK1/CDK7: Selectivity of CDK7 inhibition over CDK1 inhibition (CDK7/Cyclin H/MNAT1; CDK7 over CDK1)	CDK2/CDK7: Selectivity of CDK7 inhibition over CDK2 inhibition (CDK7/Cyclin H/MNAT1; CDK7 over CDK2)	CDK5/CDK7: Selectivity of CDK7 inhibition over CDK5 inhibition (CDK7/Cyclin H/MNAT1; CDK7 over CDK5)	also measured
CC(C)c1cnn2c(NCc3ccccc3-c3ccc4ccccc4n3)nc(N3CCNC[C@H]3CO)nc12 [Compound 271]	< 1	> 1	> 1	≤ 1	≤ 1	> 1	A (A=greater than 200 fold)	A (A=greater than 200 fold)	A (A=greater than 200 fold)	< 0.1	< 1	–	–	–	–	–	–	–	–	–	–
CC(C)c1cnn2c(NCc3ccccc3-c3nccc4ccccc34)nc(NC[C@H]3CCNC[C@@H]3O)nc12 [Compound 279]	–	> 1	> 1	1 to 10	≤ 1	> 1	B (B=less than 200 fold, but greater than 20 fold)	B (B=less than 200 fold, but greater than 20 fold)	B (B=less than 200 fold, but greater than 20 fold)	0.1 to 1	–	–	–	–	–	–	–	–	–	–	–
CC(C)c1cnn2c(NCc3ccccc3-c3ccc4ccccc4n3)cc(N3CCC(N)CC3)nc12 [Compound 73]	< 1	–	–	–	–	–	–	–	–	–	< 1	1 to 10	> 1	> 1	< 1	≤ 1	0.1 to 1	A (A=greater than 200 fold)	A (A=greater than 200 fold)	B (B=less than 200 fold, but greater than 20 fold)	IC50 (MOLT-4): 1 to 10 µM; IC50 (CDK7/Cyclin H/MNAT1; [8]): < 0.1 µM
CC(C)c1cnn2c(NCc3ccccc3-c3nccc4cc(NC(=O)CCCN(C)C)ccc34)nc(NC[C@H]3CCNC[C@@H]3O)nc12 [Compound 278]	–	> 1	> 1	> 10	1 to 10	> 1	A (A=greater than 200 fold)	A (A=greater than 200 fold)	A (A=greater than 200 fold)	< 0.1	–	–	–	–	–	–	–	–	–	–	–
CC(C)c1cnn2c(NCc3ccccc3-c3cc4ccccc4[nH]3)nc(N3CCC(N)CC3)nc12 [Compound 102]	< 1	–	–	–	≤ 1	–	–	–	–	–	< 1	< 1	0.1 to 1	0.1 to 1	< 1	≤ 1	< 0.1	B (B=less than 200 fold, but greater than 20 fold)	B (B=less than 200 fold, but greater than 20 fold)	C (C=less than 20 fold)	IC50 (CDK7/Cyclin H/MNAT1; [8]): < 0.1 µM
CC(C)c1cnn2c(NCc3ccccc3-n3cccn3)nc(-c3cccc(C(=O)N4CCC(N)CC4)c3)nc12 [Compound 171]	< 1	–	–	–	–	–	–	–	–	–	< 1	1 to 10	> 1	> 1	< 1	≤ 1	> 1	A (A=greater than 200 fold)	A (A=greater than 200 fold)	A (A=greater than 200 fold)	IC50 (MOLT-4): 1 to 10 µM; IC50 (CDK7/Cyclin H/MNAT1; [8]): < 0.1 µM
